These results are taken from patent publication US20210130790A1, “Infected Cell Cultures” (Merck Patent GmbH, priority 2017, published 2021).

The test system of this experiment is Pb-Luc (Plasmodium berghei constitutively expressing luciferase) sporozoite infection of HC-04 3D cultures. Put plainly: Drug activity on Pb-Luc sporozoite infection of HC-04 3D cultures (spheroids), luciferase readout. Type of experiment: cell-based. As to the method:
FIG. 19—Analysis of drug activity in Pb infected-HC-04 spheroids. Dose-response curve of 3D cultures treated with ATQ. Results are expressed as percentage of infection normalized to the non-treated control. Results are represented as the mean of up to two independent experiments.
Initially, a preliminary assay employing reporter lines of Plasmodium berghei, constitutively expressing luciferase (Pb-Luc) or GFP (Pb-GFP), was performed to optimize the range of cell-to-sporozoite ratios and mode of contact. Pb-Luc parasites enable measuring infection by luminescence readings of cell lysates following addition of the luciferin substrate. Pb-GFP parasites enable measuring infection flow cytometry analysis. Such analyses allow measuring the percentage of invaded cells (% GFP-positive cells) and the development of the parasite inside the hepatic cells (GFP intensity). […]
HC-04 3D cultures were infected with Pb-Luc in the optimized conditions described above (cell density of 2.5×10^4 cell/well in a 1:2 ratio). The assessment of drug effect in the infection was performed by incubating the drug at a range of concentrations from 0.01 to 100 nM for 1 hour before incubation with the sporozoites and the readout was performed 48 hours after sporozoites addition, described as incubation regimen (A) in the detailed description of the invention section (FIG. 1). […]

On to `O=C1C(O)=C([C@H]2CC[C@H](c3ccc(Cl)cc3)CC2)C(=O)c2ccccc21` [ATQ, Atovaquone], for which, where the note is “Plasmodium berghei, HC04, 2.5×10^4 cell/well, 1:2 cell-to-sporozoite ratio, drug added 1 hour before sporozoites, readout 48 hours after sporozoite addition (regimen A), read-out: half inhibitory concentration (IC50) for sporozoite infection”, the IC50 turned out to be 0.6 nM. For the same compound, the decrease of infection result (highest concentrations tested (range 0.01 to 100 nM), readout 48 hours, normalized to non-treated control) is given as “more than 90%”.
